“Also recorded” adds a separate entry of the source.
Experiments:
[1] = test system: ex vivo human donor CEC tissues; experiment: Mitochondrial respiration stress testing (extracellular flux analysis of O2 consumption, Seahorse) of donor CEC tissues stored in Optisol-GS; assay type: cell-based
Experimental: FIGS. 3A-3B. Ubiquinol increases mitochondrial function under oxidative stress. (A) Ex vivo human donor CECs stored in corneal storage media (Optisol-GS, Bausch+Lomb) are exposed to 3-fold greater O2 levels than in vivo CECs. Extracellular flux analysis of O2 consumption was performed in transplant-suitable ex vivo human donor CEC tissues stored for 12 days (average) in media supplemented with 10 μM free ubiquinol (dissolved in ethanol at 37° C.) for the last 5 days of storage (N=13) compared to same-donor controls (N=13). […] (B) The presence of αvβ3 on B4G12 CECs (N=3) was confirmed, indicating cRGD NPs will be a suitable delivery system for getting ubiquinol into CECs. FITC-anti-αvβ3 labeled cells were detected and counted by flow cytometry and compared to a FITC-IgG control as well as unlabeled cells. Dashed lines=injections of oligomycin (0), carbonyl cyanide-p-trifluoromethoxy-phenyl-hydrazone (F), antimycin A/rotenone (R/A). Error bars=SEM. ****P<0.0001. SRC, spare respiratory capacity.
Supplementing Optisol-GS with free ubiquinol increases mitochondrial function in donor CECs. Mitochondrial respiration stress testing (extracellular flux analysis of O2 consumption, Seahorse XFe24, Agilent) was performed in transplant-suitable ex vivo human donor CEC tissues stored for 12 days (average) in media supplemented with 10 μm free ubiquinol (dissolved in ethanol at 37 °C) for the last 5 days of storage compared to same-donor ethanol-only controls (N=13 each) (Greiner et al., 2015). […] Although free ubiquinol improved CEC mitochondrial function, ethanol and heat were required to bring it into solution and it was impractical to handle in standard industry conditions. Therefore, ubiquinol can be used to rescue mitochondrial function from storage-related oxidative stress but needs increased delivery. Given the positive impact of ubiquinol treatment on CECs stored at the end of conventional storage (12-14 days), increasing ubiquinol delivery may permit testing for benefit at extended PT (21 days, a 50% increase in PT).

cultured FECD CECs = experiment: RSL3/erastin-induced ferroptosis assay, cell viability by MTS, cultured FECD CECs; assay type: cell-based, human
Experimental: (§1) FIGS. 4A-4C. FECD CECs are more susceptible to ferroptosis than B4G12 control CECs. (A) Basal lipid peroxidation, as measured by C11 BODIPY, is 57% higher in cultured FECD CECs (N=3) than B4G12 cells (N=3). […] Cultured FECD CECs (N=6) also have 4.7-fold more TFR1 mRNA than B4G12 CECs (N=9), normalized to 18S. (C) Cultured FECD CECs (N=3) and B4G12 cells (N=3) were treated with 1 μM RSL3 to induce cell death via Fe-dependent ferroptosis. The cells were also treated with 100 μM of a Fe chelator, deferoxamine (DFO). Cell viability was measured using MTS assays over 8 hours.
FIGS. 5A-5B. FECD-associated ferroptosis is prevented by ubiquinol nanoparticles (NPs) and SOD2 supplementation. […] After incubating another 24 hours (68 hours total), cell viability in each culture was quantified using MTS assays.
(§2) Basal levels of lipid peroxidation and cytosolic Fe are higher in human FECD CECs than control CECs. […] One experiment assessed lipid peroxidation directly. Cultured FECD CECs and control CECs (B4G12 cells) were labeled with BODIPY and intensity was measured using flow cytometry. […] To determine whether Fe trafficking is affected in the context of FECD, TFR1 was quantified, which has been identified as an indicator of ferroptosis (Stockwell et al., 2017; Feng et al., 2020). […]

[2] = Optisol-GS at 4° C. over 4 days
Experimental: Samples of Optisol-GS are collected daily. Concentrations (μg drug/total protein) of ubiquinol and its oxidized form ubiquinone are measured using HPLC. Coenzyme Q9 (CoQ9) is the internal standard.

[3] = cited from earlier work
Col8a2^L450W mice = conditions: 7 mg/ml in water vs water alone; cited from earlier work
B4G12 CECs = experiment: RSL3/erastin-induced ferroptosis / cell death assay, cell viability by MTS, B4G12 CECs; assay type: cell-based, human
Experimental: as §1
FIGS. 8A-8B. Nanoparticle targeting and efficacy. […] FITC-anti-αvβ3 labeled cells were detected and counted by flow cytometry and compared to a FITC-IgG control as well as unlabeled cells. […] After incubating another 24 hours (68 hours total), cell viability in each culture was quantified using MTS assays. […]
as §2

[4] = 10 μM free ubiquinol for last 5 days of 12 days (average) storage, vs same-donor controls, N=13

COc1c(O)c(C)c(C/C=C(\C)CC/C=C(\C)CC/C=C(\C)CC/C=C(\C)CC/C=C(\C)CC/C=C(\C)CC/C=C(\C)CC/C=C(\C)CC/C=C(\C)CCC=C(C)C)c(O)c1OC [free ubiquinol, ubiquinol]
increase in maximal respiration [1, 4]: 93%
increase in spare respiratory capacity [1, 4]: 174%
mitochondrial respiration / mitochondrial function ([1]; free ubiquinol in corneal storage media vs controls): enhance mitochondrial function; also recorded: increased mitochondrial respiration compared to controls; also recorded: significantly increased mitochondrial respiration and spare respiratory capacity versus controls
prevention of ferroptosis (cell viability, MTS) (cultured FECD CECs; antioxidant at 20 h, 1 μM RSL3 after 24 h, read after another 24 h): little efficacy
ubiquinol remaining [2]: 69.3%
solubility in water / aqueous media [3]: practically insoluble in water; also recorded: poorly soluble in aqueous media

CC(=O)N[C@@H](CS)C(=O)O [NAC, N-Acetyl-L-cysteine]
CEC death associated with ER stress and oxidative stress (Col8a2^L450W mice): prevented CEC death
clinical markers of CEC health (Col8a2^L450W mice): increase clinical markers of CEC health

COC(=O)c1ccc([C@@H]2c3[nH]c4ccccc4c3C[C@@H](C(=O)OC)N2C(=O)CCl)cc1 [RSL3]
sensitivity of cells to induced ferroptosis (cultured FECD CECs; cultured FECD CECs): sensitive
sensitivity of cells to induced ferroptosis (B4G12 CECs): sensitive

From patent publication US20240238383A1, “ANTI-OXIDANT CONTAINING PARTICLES AND METHODS OF USE” (University of lowa Research Foundation, priority 2021, published 2024)
